Measured values as given in ChEMBL document CHEMBL5705908, “Structural and chemical insights into the covalent-allosteric inhibition of the protein kinase Akt” (Chem Sci, 2019).
Active and inactive are the calls of the source. No cut-off for these calls is given here.

Legend:
[1] = molecular target: RAC-alpha serine/threonine-protein kinase (Homo sapiens) (UniProt P31749); experiment: Covalent-allosteric inhibition of full length N-terminal his6-tagged AKT (2 to 446 residues) (unknown origin) expressed in Spodoptera frugiperda Sf9 cells assessed as kinact/ki ratio
RAC-alpha serine/threonine-protein kinase (Homo sapiens), sequence (P31749 whole entry, the tested form may be a part): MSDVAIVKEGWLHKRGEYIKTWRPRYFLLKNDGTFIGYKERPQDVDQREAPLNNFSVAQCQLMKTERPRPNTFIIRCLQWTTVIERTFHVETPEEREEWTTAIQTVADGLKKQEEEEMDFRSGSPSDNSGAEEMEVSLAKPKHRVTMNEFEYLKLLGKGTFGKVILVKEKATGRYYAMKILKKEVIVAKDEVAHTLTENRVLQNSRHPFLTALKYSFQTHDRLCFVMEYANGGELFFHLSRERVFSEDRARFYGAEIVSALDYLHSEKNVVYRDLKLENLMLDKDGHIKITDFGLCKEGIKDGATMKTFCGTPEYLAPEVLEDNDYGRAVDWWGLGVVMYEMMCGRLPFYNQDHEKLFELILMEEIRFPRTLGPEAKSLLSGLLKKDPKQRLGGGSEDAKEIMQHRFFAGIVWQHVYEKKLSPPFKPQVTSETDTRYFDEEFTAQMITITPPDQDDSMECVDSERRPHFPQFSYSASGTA

[2] = molecular target: RAC-alpha serine/threonine-protein kinase (Homo sapiens) (UniProt P31749); experiment: Covalent-allosteric inhibition of full length N-terminal his6-tagged AKT (2 to 446 residues) (unknown origin) expressed in Spodoptera frugiperda Sf9 cells assessed as kinact
BT-474 = experiment: Antiproliferative activity against human BT-474 cells assessed as reduction in cell viability incubated for 5 days by celltiter-glo assay; format: functional, cell-based; details: BT-474, 120 h
AN3-CA = experiment: Antiproliferative activity against human AN3-CA cells assessed as reduction in cell viability incubated for 5 days by celltiter-glo assay; format: functional, cell-based; details: 120 h
MCF7 = experiment: Antiproliferative activity against human MCF7 cells assessed as reduction in cell viability incubated for 5 days by celltiter-glo assay; format: functional, cell-based; details: MCF7, 120 h
KU-19-19 = experiment: Antiproliferative activity against human KU-19-19 cells assessed as reduction in cell viability incubated for 5 days by celltiter-glo assay; format: functional, cell-based; details: KU-19-19, 120 h
[3] = molecular target: RAC-alpha serine/threonine-protein kinase (Homo sapiens) (UniProt P31749); experiment: Covalent-allosteric inhibition of full length N-terminal his6-tagged AKT (2 to 446 residues) (unknown origin) expressed in Spodoptera frugiperda Sf9 cells at 100 uM incubated for 1 hr by Mass spectrometry analysis

Row | Ratio [1] | Kinact [2] | Compound | EC50 (KU-19-19) | also measured
1 | 0.168 µM⁻¹ s⁻¹ | 0.078 min⁻¹ | C=CC(=O)Nc1cc(Br)cc(C(=O)NC2CCN(Cc3ccc(-c4nc5cc[nH]c(=O)c5cc4-c4ccccc4)cc3)CC2)c1 | – | –
2 | 0.014 µM⁻¹ s⁻¹ | 0.085 min⁻¹ | C=CC(=O)Nc1ccc(C(=O)NC2CCN(Cc3ccc(-c4nc5cc[nH]c(=O)c5cc4-c4ccccc4)cc3)CC2)c(F)c1 | – | –
3 | 0.002 µM⁻¹ s⁻¹ | 0.042 min⁻¹ | C=CC(=O)Nc1ccc(C(=O)NC2CCN(Cc3ccc(-c4nc5cc[nH]c(=O)c5cc4-c4ccccc4)cc3)CC2)cc1 | 11.3 µM | –
4 | 0.085 µM⁻¹ s⁻¹ | 0.138 min⁻¹ | C=CC(=O)Nc1ccccc1C(=O)NC1CCN(Cc2ccc(-c3nc4cc[nH]c(=O)c4cc3-c3ccccc3)cc2)CC1 | – | –
5 | 0.038 µM⁻¹ s⁻¹ | 0.088 min⁻¹ | C=CC(=O)Nc1ccc(C(=O)NC2CCN(Cc3ccc(-c4nc5cc[nH]c(=O)c5cc4-c4ccccc4)cc3)CC2)s1 | – | –

The next lines start with the molecule.

Row | Compound | Ratio [1] | Kinact [2] | EC50 (KU-19-19) | also measured
6 | CN(C)C/C=C/C(=O)Nc1ccc2[nH]c(=O)n(C3CCN(Cc4ccc(-c5nc6cc[nH]c(=O)c6cc5-c5ccccc5)cc4)CC3)c2c1 | 0.025 µM⁻¹ s⁻¹ | 0.05 min⁻¹ | – | EC50 (BT-474): 12 µM; EC50 (AN3-CA): 15.3 µM; EC50 (MCF7): 20.3 µM
7 | CC(C)NC[C@@H](C(=O)N1CCN(c2ncnc3c2[C@H](C)C[C@H]3O)CC1)c1ccc(Cl)cc1 [IPATASERTIB] | – | – | 24 µM | –
8 | C=CC(=O)Nc1ccc2[nH]c(=O)n(C3CCN(Cc4ccc(-c5nc6cc[nH]c(=O)c6cc5-c5ccccc5)cc4)CC3)c2c1 | – | – | – | inhibition [3]: Active
9 | C=CC(=O)Nc1ccc2c(c1)n(C1CCN(Cc3ccc(-c4nc5cc[nH]c(=O)c5cc4-c4ccccc4)cc3)CC1)c(=O)n2C | 0.19 µM⁻¹ s⁻¹ | 0.121 min⁻¹ | – | inhibition [3]: Active
10 | C=CC(=O)Nc1cccc(C(=O)NC2CCN(Cc3ccc(-c4nc5cc[nH]c(=O)c5cc4-c4ccccc4)cc3)CC2)c1 | – | – | 14.9 µM | –
11 | NC1(C(=O)N[C@@H](CCO)c2ccc(Cl)cc2)CCN(c2nc[nH]c3nccc2-3)CC1 [CAPIVASERTIB] | – | – | 20.9 µM | –
12 | C=CC(=O)Nc1cccc(CNC2CCN(Cc3ccc(-c4nc5cc[nH]c(=O)c5cc4-c4ccccc4)cc3)CC2)c1 | 0.004 µM⁻¹ s⁻¹ | 0.071 min⁻¹ | – | –
